We go through two molecules from patent US9797884B2, “Marker for determination of sensitivity to anticancer agent” (KEIO UNIVERSITY, priority 2011, dated 2017).

Format in all cases: cell-based, human
Data set [1] deals with HCT116. As to the kind of experiment: Sensitivity of colorectal cancer cells to 5-FU.
Data set [2] has as its system DLD-1. As to the kind of experiment: Sensitivity of colorectal cancer cells to 5-FU.
In data set [3] the test system is HT29. As to the kind of experiment: MTS assay cell viability, 48 hours L-OHP exposure. The note with it: HT29, 48 hours exposure, read-out: IC50 value (L-OHP concentration at which cell growth is inhibited by 50%). The text has this: (§1) Ten human colorectal cancer cell lines (DLD-1, HCT15, HCT116, HT29, Lovo, LS174T, SW480, SW620, SW1116, and WiDr) were employed. HCT116 and HT29 were obtained from Kabushiki Kaisha Yakult Honsha. DLD-1, Lovo, SW480, SW1116, and WiDr were obtained from Dainippon Sumitomo Pharma Co., Ltd. HCT15 and LS174T were obtained from Cell Resource Center for Biomedical Research, Institute of Development, Aging and Cancer, Tohoku University. SW620 was obtained from Summit Pharmaceuticals International Corporation.
(§2) Cancer cells of each cell line were exposed to 0- to 1,000-μmol/L L-OHP for 48 hours and after drug exposure, cell viability was determined by means of an MTS assay (CellTiter96™ AQueous One Solution Cell Proliferation Assay, Promega). IC50 value (L-OHP concentration at which cell growth is inhibited by 50% as compared with L-OHP-non-treated sample) was calculated, and sensitivity of each cell line to L-OHP was evaluated by the IC50 value as an index.
In general terms: Formazan colour is commonly taken as a measure of viable cells.

Data set [4] concerns SW620. As to the kind of experiment: MTS assay cell viability, 48 hours L-OHP exposure.
Excerpt: as §1, §2

Data set [5] concerns WiDr. As to the kind of experiment: MTS assay cell viability, 48 hours L-OHP exposure. The note with it: 48 hours exposure, read-out: IC50 value (L-OHP concentration at which cell growth is inhibited by 50%).
Excerpt: as §1, §2

Data set [6] has as its system HCT15. Put plainly: MTS assay cell viability, 48 hours L-OHP exposure.
Excerpt: as §1, §2

For data set [7], the system named is Lovo. As to the kind of experiment: MTS assay cell viability, 48 hours L-OHP exposure. The note with it: 48 hours exposure, read-out: IC50 value (L-OHP concentration at which cell growth is inhibited by 50%).
Excerpt: as §1, §2

Data set [8] has as its system DLD-1. As to the kind of experiment: MTS assay cell viability, 48 hours L-OHP exposure. The settings on record: DLD-1, 48 hours exposure, read-out: IC50 value (L-OHP concentration at which cell growth is inhibited by 50%).
Excerpt: as §1, §2

For data set [9], the system named is SW1116. As to the kind of experiment: MTS assay cell viability, 48 hours L-OHP exposure. The note with it: SW1116, 48 hours exposure, read-out: IC50 value (L-OHP concentration at which cell growth is inhibited by 50%).
Excerpt: as §1, §2

Data set [10] has as its system HCT116. Put plainly: MTS assay cell viability, 48 hours L-OHP exposure. The note with it: HCT116, 48 hours exposure, read-out: IC50 value (L-OHP concentration at which cell growth is inhibited by 50%).
Excerpt: as §1, §2

Data set [11] deals with SW480. Put plainly: MTS assay cell viability, 48 hours L-OHP exposure. The settings on record: SW480, 48 hours exposure, read-out: IC50 value (L-OHP concentration at which cell growth is inhibited by 50%).
Excerpt: as §1, §2

For data set [12], the system named is LS174T. As to the kind of experiment: MTS assay cell viability, 48 hours L-OHP exposure.
Excerpt: as §1, §2

In data set [13] the test system is HCT116 and DLD-1 cells. As to the kind of experiment: CE-TOFMS metabolomic analysis of intracellular metabolites after exposure to L-OHP. The settings on record: 10 μM L-OHP, 24-hour exposure. Here is the method: Among the cell lines employed in Example 1, two human colorectal cancer cell lines (HCT116 and DLD-1) were employed. Cell culturing was performed by means of a φ100 mm/Tissue Culture Dish (IWAKI) with a medium (Dulbecco's modified Eagle's Medium (DMEM) containing 10% fetal bovine serum (product of Invitrogen) at 37° C. under 5% CO2 conditions.
The two colorectal cancer cells were exposed to L-OHP by changing the culture medium to a medium containing L-OHP at 10 μmol/L. The same culture was performed in an L-OHP-free medium (control group). After exposure to L-OHP (0 hr, 4 hr, 12 hr, 24 hr, and 48 hr), the cells were washed on ice with 5% mannitol (4° C.). Immediately thereafter, methanol (4° C., containing an internal standard) was added to the washed cells, to thereby inactivate present enzymes, and the cells were stored at −80° C. Separately, cells for cell count were provided in addition to the cells from which metabolites were extracted, and then subjected to the same treatment before performing cell count. The data were employed in correction of the cell counts. […]
Comprehensive analysis of intracellular metabolites was performed by means of a capillary electrophoresis-time-of-flight-type mass spectrometer (CE-TOFMS) (product of Agilent Technologies). […] Metabolites detected at m/z values of 50 to 1,000 were simultaneously quantitated.

In the case of `O=c1[nH]cc(F)c(=O)[nH]1` [5-FU, fluorouracil], the entries for the “sensitivity of the cell line to 5-FU” value in data set [1] and in data set [2] were “high-sensitivity” and “low-sensitivity”, respectively.

On to `O=C1[O][Pt]2([NH][C@@H]3CCCC[C@H]3[NH]2)[O]C1=O` [L-OHP, (SP-4-2)-[(1R,2R)-cyclohexane-1,2-diamine-κN,κN′][ethanedioato (2-)-κO^1,κO^2]platinum], for which the IC50 in [3] worked out at 23.9 ± 9.29 µM; in data set [5], 17.3 ± 5.24 µM; in data set [7] it was 0.72 ± 0.12 µM; in data set [8], 16.9 ± 6.31 µM; in data set [9], 26.4 ± 4.12 µM; in [10], 0.89 ± 0.33 µM. Also, the IC50 in data set [11] turned out to be 0.65 ± 0.07 µM. The “sensitivity group of the cell line to L-OHP on the basis of the MTS assay” value in data set [4] was “high-sensitive”; in data set [6], “high-sensitive”; in [12] it was “low-sensitive”. In data set [13] (IMP), the “ratio (HCT116/DLD-1) of IMP intracellular level after exposure relative to control group” value worked out at 0.26. The “ratio (HCT116/DLD-1) of intracellular level after exposure relative to control group, each metabolite” value in data set [13] (dTMP, CMP, UMP, GMP, CDP, UDP, dCTP, CTP, UTP, GTP, NADP+, ATP and/or dGTP) is recorded as not below 1.2.
